Assay [1] has as its system TNF-α. In words: TNF-α release by LPS-induced macrophages (ELISA). The format is cell-based, mouse. Particulars: for IC50: Mus musculus, RAW264.7, RAW 264.7, 24 h pre-cultivation, then LPS 2 h, read-out: TNF-α, concentration necessary to halve the release (IC50); for TNF-α (pg/mL): untreated LPS control 2954 ± 92. How it is done: To determine the level of inflammatory cytokine TNF-α, macrophages were pre-cultivated with the tested compounds (12.5–50 µM) for 24 h. Thereafter, the plates were washed with PBS and new MEM medium enriched with LPS (1 µg/mL) was added to the wells. After 2 h of incubation, the plates were centrifuged (1000× g; 10 min, 4 °C) and then the medium was removed and frozen to −80 °C. Prior to the detection, the samples were diluted in ELISA diluent in a 1:10 ratio. […]

The test system of assay [2] is IL-6. Nature of the assay: IL-6 release by LPS-induced macrophages (ELISA). The format is cell-based, mouse. The following applies: for IC50: Mus musculus, RAW264.7, RAW 264.7, LPS + compound 6 h, read-out: IL-6, concentration necessary to halve the release (IC50); for IL-6 (pg/mL): untreated LPS control 1148 ± 35. How it is done: To determine the level of inflammatory cytokine IL-6, macrophages were cultivated with LPS (1 µg/mL) and the tested compounds (7–50 µM) for 6 h. After incubation, the plates were centrifuged (1000× g; 10 min, 4 °C) and then the medium was removed and frozen to −80 °C. Prior to the detection, the samples were diluted in ELISA diluent in a 1:10 ratio. Production of the cytokine was determined by uncoated ELISA performed according to the manufacturer’s instructions.

Assay [3] has as its system ABCA1. In words: ABCA1 mRNA expression (real-time PCR). It is filed as cell-based, human. Particulars: A2780/DOX. How it is done: (§1) The A2780/DOX cell line was seeded into 5 cm Petri dishes with DMEM medium at 1 × 10^5 cell/mL. After 24 h, the dishes were washed with PBS and new DMEM medium supplemented with doxorubicin (at concentration equal to IC25) and samples (10 µM) were added. After 48 h of treatment, the cells were washed with PBS and harvested using the standard trypsin-EDTA procedure. The harvested cells were centrifuged (3200× g; 10 min, 4 °C). The supernatant was discarded, and the pellets were washed with 1.5 mL of cooled PBS (5400× g; 10 min, 4 °C). The washing step was repeated with 1 mL of PBS and the cells were centrifuged again (10,000× g; 3 min, 4 °C). Afterwards, the pellets were resuspended in 1 mL of Trizol (Invitrogen, Carlsbad, CA, USA) and transferred into pre-cooled RNase-free microfuge tubes. The samples were stored at −80 °C.
(§2) A Quant-iT RiboGreen RNA Assay Kit (Invitrogen) was used to determine the RNA concentration using the Infinite M200 plate reader (Tecan, Männedor, Switzerland). The cDNA was prepared from 0.5 µg of total RNA using a RevertAid First Strand Synthesis cDNA Kit (MBI Fermentas, Vilnius, Lithuania). The amplification of the ubiquitin C gene fragment was used to determine the quality of cDNA.
(§3) The experiment was performed using the ViiA7 Real-Time polymerase chain reaction (PCR) System (Life Technologies, Camarillo, CA, USA) with a 384-well block. Before quantitative real-time PCR, the master mix was prepared by mixing 2 µL of 8 × diluted cDNA, 1.75 µL of RNase free water, 1 µL of 5 × HotFIREPol Probe quantitative PCR Mix Plus (Solis Biodyne, Tartu, Estonia) and 0.25 µL of specific 20 × TaqMan Gene Expression Assay (Life Technologies), giving 5 µL of final reaction volume. Cycling parameters were: initial hold at 50 °C for 2 min and denaturation at 95 °C for 10 min, followed by 45 cycles consisting of denaturation at 95 °C for 15 s and annealing/extension at 60 °C for 1 min. After each extension phase, the fluorescence values were acquired. Duplicate samples were used for measurement and samples with a standard deviation of duplicates > 1.0 cycle threshold (Ct) were re-analyzed. The real time PCR procedure was maintained according to MIQE (Minimum information for publication of quantitative real-time PCR experiments) guidelines. The software REST 2009 (Qiagen, Hilden, Germany) served to compare relative transcript levels of genes in the cell line.

The test system of assay [4] is ABCA2. In words: ABCA2 mRNA expression (real-time PCR). It is filed as cell-based, human. The following applies: A2780/DOX, 10 µM combined with doxorubicin at IC25, 48 h. How it is done: as §1, §2, §3
A general note: Quantitative PCR measures a nucleic acid by following its amplification.

Assay [5] relates to ABCB2. Nature of the assay: ABCB2 mRNA expression (real-time PCR). It is filed as cell-based, human. Particulars: A2780/DOX, 10 µM combined with doxorubicin at IC25, 48 h. The protocol:
as §1, §2, §3

Assay [6] concerns ABCB9. Nature of the assay: ABCB9 mRNA expression (real-time PCR). It is filed as cell-based, human. The following applies: A2780/DOX, 10 µM combined with doxorubicin at IC25, 48 h. How it is done: as §1, §2, §3
The subject of assay [7] is ABCC1 (MRP1). Nature of the assay: ABCC1 mRNA expression (real-time PCR). It is filed as cell-based, human. How it is done:
as §1, §2, §3

For assay [8], the system named is ABCC5. In words: ABCC5 mRNA expression (real-time PCR). It is filed as cell-based, human. The following applies: A2780/DOX, 10 µM combined with doxorubicin at IC25, 48 h. The protocol: as §1, §2, §3
For assay [9], the system named is ABCD1. Nature of the assay: ABCD1 mRNA expression (real-time PCR). Particulars: A2780/DOX. It is filed as cell-based, human. How it is done: as §1, §2, §3
Assay [10] concerns ABCD2. In words: ABCD2 mRNA expression (real-time PCR). The format is cell-based, human. Particulars: A2780/DOX. The protocol: as §1, with “After 24 h, the dishes were washed with PBS and new DMEM medium supplemented with doxorubicin (at concentration equal to IC25) and samples (10 µM) were added.” left out
as §2, §3

The test system of assay [11] is ABCD3. In words: ABCD3 mRNA expression (real-time PCR). It is filed as cell-based, human. The following applies: A2780/DOX. How it is done:
as §1, §2, §3

[12] abbreviates: 10 µM combined with doxorubicin at IC25, 48 h.
Setting [13] is: 10 µM, 48 h, without doxorubicin.
[14] abbreviates: A2780/DOX, 10 µM, 48 h, without doxorubicin.

Results on two compounds are retold here after publication PMC7278776, “Multidrug Resistance Modulation Activity of Silybin Derivatives and Their Anti-Inflammatory Potential” (Antioxidants, 2020).

Marks after values point to notes of the source that are not given here.

Regarding `COc1cc(C2Oc3cc([C@H]4Oc5cc(O)cc(O)c5C(=O)[C@@H]4O)ccc3OC2CO)ccc1O` (some centres unmarked) [Silybin AB, silybin], the IC50 in assay [1] came to 38.7 µM; in [2], 4.8 ± 0.3 µM. The “TNF-α (pg/mL)” value is recorded as 2497 ± 37 ^b pg/mL in assay [1] (compound 12.5 µM), 2425 ± 145 ^c pg/mL in assay [1] (compound 25 µM) and 1177 ± 75 ^d pg/mL in [1] (compound 50 µM). In addition, the “IL-6 (pg/mL)” value is 311 ± 18 ^a pg/mL in assay [2] (compound 7 µM), 173 ± 5 ^b pg/mL in [2] (compound 15 µM) and 83 ± 4 ^b pg/mL in assay [2] (compound 50 µM). Besides, the “ABCA1 Expression Difference” value in assay [3] (setting [12]) came to 2.922; in assay [3] (setting [13]) it was 2.021. For the same compound, the “ABCA2 Expression Difference” value in assay [4] came out at 1.207. The “ABCB2 Expression Difference” value in assay [5] is 18.114. In addition, in assay [6], the “ABCB9 Expression Difference” value was found to be 1.638. For the same compound, the “ABCC1 Expression Difference” value was determined as 1.640 in assay [7] (A2780/DOX, 10 µM combined with doxorubicin at IC25, 48 h) and 2.521 in assay [7] (setting [14]). Also, the “ABCC5 Expression Difference” value in assay [8] is on record as 1.787. The “ABCD1 Expression Difference” value in assay [9] (setting [12]) was 2.868. The “ABCD2 Expression Difference” value in assay [10] (setting [12]) is 0.494; in [10] (setting [13]) it was 1.566. In assay [10] (setting [12]), the “ABCD2 Treated vs. Untreated” value is listed as “DOWN”. Moreover, the “ABCD3 Expression Difference” value was 1.560 in assay [11] (setting [12]) and 2.181 in assay [11] (setting [13]).
For the compound `COc1cc([C@@H]2Oc3cc([C@H]4Oc5cc(O)cc(O)c5C(=O)[C@@H]4O)ccc3O[C@H]2CO)ccc1O` [Silybin B, silybin B], the IC50 worked out at 53.3 ± 0.7 µM in assay [1] and 5.2 ± 0.2 µM in assay [2]. In addition, the figures for the “TNF-α (pg/mL)” value in [1] (compound 12.5 µM), in assay [1] (compound 25 µM) and in [1] (compound 50 µM) were 2441 ± 68 ^b pg/mL, 2375 ± 64 ^c pg/mL and 1792 ± 63 ^e pg/mL, respectively. For the same compound, the “IL-6 (pg/mL)” value in assay [2] (compound 7 µM) was 297 ± 23 ^a pg/mL; in assay [2] (compound 15 µM), 166 ± 6 ^b pg/mL; in assay [2] (compound 50 µM), 37 ± 2 ^a pg/mL. Besides, the “ABCA1 Expression Difference” value in [3] (setting [12]) is on record as 2.415. Also, in assay [4], the “ABCA2 Expression Difference” value is listed as 0.903. The “ABCA2 Treated vs. Untreated” value in [4] is listed as “DOWN”. For the same compound, the “ABCB2 Expression Difference” value in [5] was determined as 15.698. Further, in [6], the “ABCB9 Expression Difference” value is listed as 1.241. Moreover, the “downregulation of ABCC1 (MRP1) expression” value in assay [7] (setting [13]) came out at 59%. The “ABCC1 Expression Difference” value in assay [7] (setting [14]) is given as 0.413. In addition, the “ABCC1 Treated vs. Untreated” value in assay [7] (setting [14]) is reported as “DOWN”. The “ABCC5 Expression Difference” value in assay [8] is on record as 1.473. Also, in assay [9] (setting [13]), the “ABCD1 Expression Difference” value came out at 0.348. Also, in assay [9] (setting [13]), the “ABCD1 Treated vs. Untreated” value is reported as “DOWN”. In addition, the “ABCD2 Expression Difference” value is recorded as 0.448 in [10] (setting [12]) and 0.322 in [10] (setting [13]). Also, the “ABCD2 Treated vs. Untreated” value in [10] (setting [12]) and in assay [10] (setting [13]) was “DOWN” throughout. Besides, the “ABCD3 Expression Difference” value in [11] (setting [13]) is recorded as 0.337. The “ABCD3 Treated vs. Untreated” value in [11] (setting [13]) is listed as “DOWN”.
